Measured values taken from article PMC11558128 (Advanced Science, 2024).
Positions of bridges follow the written chain, without caps; N, C: chain ends. Residues, ends and D or L forms follow the SMILES beside them.

Key:
C57BL/6 mice [1] = assay: Spared nerve injury (SNI) neuropathic pain model; settings: mouse, in vivo, ip
Experimental: In the spared nerve injury (SNI) neuropathic pain model,^[ [39] ^] C57BL/6 mice (weight 18–20 g, 6–8 weeks, both sex) were anesthetized with 3% halothane. The thigh was incised parallel to the femur, and the muscles were bluntly separated to expose the sciatic nerve. The sciatic nerve is ligated with 6.0 silk sutures. […] The paw withdrawal threshold to mechanical stimuli is measured between 0 and 180 min after drug administration.

C57BL/6 mice [2] = assay: CFA-induced inflammatory pain model (von Frey paw withdrawal threshold); settings: mouse, in vivo
Experimental: In the Complete Freund's adjuvant (CFA)–induced inflammatory pain modelinflammation is induced by injecting 15 µL of CFA into the intraplantar surface of the right hind paw of C57BL/6 mice (weight 18–20 g, 6–8 weeks, both sex).^[ [38] ^] Mechanical paw withdrawal thresholds are then measured using manual von Frey (Stoelting Co) after 2 days of CFA injection.

hNav1.7 = molecular target: T1, hNav1.7 (Homo sapiens, UniProt Q15858); parameters: method as in 2 sources, one per row (each row's own in cited_ref): ref 11c (a number printed in a supplementary file, which may have a reference list of its own: not looked up in the article's list) ||| ref 11c = [11]; PMID 27129258; doi:10.1074/jbc.M116.725978; 11 a) G. L. Adams , P. S. Pall , S. M. Grauer , X. Zhou , J. E. Ballard , M. Vavrek , R. L. Kraus , P. Morissette , N. Li , S. Colarusso , E. Bianchi , A. Palani , R. Klein , C. T. John , D. Wang , M.; settings: vs HNTX-III; ref 11c; cited from earlier work
T1 construct: expressed in transfected cells; host or cells: HEK293T

rKv4.3 = molecular target: T2, rKv4.3 (Rattus norvegicus, UniProt Q62897); assay: cell-based; settings: vs HNTX-III
T2 construct: expressed in transfected cells; host or cells: HEK293T
T2 sequence (Q62897 1-655): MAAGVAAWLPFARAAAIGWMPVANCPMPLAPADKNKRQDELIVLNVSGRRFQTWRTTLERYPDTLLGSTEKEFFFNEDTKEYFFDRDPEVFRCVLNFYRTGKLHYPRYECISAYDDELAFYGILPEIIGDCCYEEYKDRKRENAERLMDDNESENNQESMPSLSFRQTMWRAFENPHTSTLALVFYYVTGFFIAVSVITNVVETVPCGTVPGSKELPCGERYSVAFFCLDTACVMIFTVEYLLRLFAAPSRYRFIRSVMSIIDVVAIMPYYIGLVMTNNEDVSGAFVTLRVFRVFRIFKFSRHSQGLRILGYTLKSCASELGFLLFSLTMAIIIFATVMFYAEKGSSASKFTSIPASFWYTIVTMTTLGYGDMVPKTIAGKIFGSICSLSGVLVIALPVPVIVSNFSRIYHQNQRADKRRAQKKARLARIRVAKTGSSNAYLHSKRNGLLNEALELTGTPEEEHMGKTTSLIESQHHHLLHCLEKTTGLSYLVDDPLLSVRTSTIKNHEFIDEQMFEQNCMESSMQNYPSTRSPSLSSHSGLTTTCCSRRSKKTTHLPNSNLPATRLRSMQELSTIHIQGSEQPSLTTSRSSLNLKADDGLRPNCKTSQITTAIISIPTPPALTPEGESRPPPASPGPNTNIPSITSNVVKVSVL

T1 sequence (O60939 30-215): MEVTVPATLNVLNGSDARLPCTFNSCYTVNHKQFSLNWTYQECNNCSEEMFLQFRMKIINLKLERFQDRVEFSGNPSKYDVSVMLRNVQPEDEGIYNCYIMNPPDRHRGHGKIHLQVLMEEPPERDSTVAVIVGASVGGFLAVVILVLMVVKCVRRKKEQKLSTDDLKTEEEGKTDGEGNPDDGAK
T1 sequence (Q15858 other isoform, or with tags, fused parts or gaps): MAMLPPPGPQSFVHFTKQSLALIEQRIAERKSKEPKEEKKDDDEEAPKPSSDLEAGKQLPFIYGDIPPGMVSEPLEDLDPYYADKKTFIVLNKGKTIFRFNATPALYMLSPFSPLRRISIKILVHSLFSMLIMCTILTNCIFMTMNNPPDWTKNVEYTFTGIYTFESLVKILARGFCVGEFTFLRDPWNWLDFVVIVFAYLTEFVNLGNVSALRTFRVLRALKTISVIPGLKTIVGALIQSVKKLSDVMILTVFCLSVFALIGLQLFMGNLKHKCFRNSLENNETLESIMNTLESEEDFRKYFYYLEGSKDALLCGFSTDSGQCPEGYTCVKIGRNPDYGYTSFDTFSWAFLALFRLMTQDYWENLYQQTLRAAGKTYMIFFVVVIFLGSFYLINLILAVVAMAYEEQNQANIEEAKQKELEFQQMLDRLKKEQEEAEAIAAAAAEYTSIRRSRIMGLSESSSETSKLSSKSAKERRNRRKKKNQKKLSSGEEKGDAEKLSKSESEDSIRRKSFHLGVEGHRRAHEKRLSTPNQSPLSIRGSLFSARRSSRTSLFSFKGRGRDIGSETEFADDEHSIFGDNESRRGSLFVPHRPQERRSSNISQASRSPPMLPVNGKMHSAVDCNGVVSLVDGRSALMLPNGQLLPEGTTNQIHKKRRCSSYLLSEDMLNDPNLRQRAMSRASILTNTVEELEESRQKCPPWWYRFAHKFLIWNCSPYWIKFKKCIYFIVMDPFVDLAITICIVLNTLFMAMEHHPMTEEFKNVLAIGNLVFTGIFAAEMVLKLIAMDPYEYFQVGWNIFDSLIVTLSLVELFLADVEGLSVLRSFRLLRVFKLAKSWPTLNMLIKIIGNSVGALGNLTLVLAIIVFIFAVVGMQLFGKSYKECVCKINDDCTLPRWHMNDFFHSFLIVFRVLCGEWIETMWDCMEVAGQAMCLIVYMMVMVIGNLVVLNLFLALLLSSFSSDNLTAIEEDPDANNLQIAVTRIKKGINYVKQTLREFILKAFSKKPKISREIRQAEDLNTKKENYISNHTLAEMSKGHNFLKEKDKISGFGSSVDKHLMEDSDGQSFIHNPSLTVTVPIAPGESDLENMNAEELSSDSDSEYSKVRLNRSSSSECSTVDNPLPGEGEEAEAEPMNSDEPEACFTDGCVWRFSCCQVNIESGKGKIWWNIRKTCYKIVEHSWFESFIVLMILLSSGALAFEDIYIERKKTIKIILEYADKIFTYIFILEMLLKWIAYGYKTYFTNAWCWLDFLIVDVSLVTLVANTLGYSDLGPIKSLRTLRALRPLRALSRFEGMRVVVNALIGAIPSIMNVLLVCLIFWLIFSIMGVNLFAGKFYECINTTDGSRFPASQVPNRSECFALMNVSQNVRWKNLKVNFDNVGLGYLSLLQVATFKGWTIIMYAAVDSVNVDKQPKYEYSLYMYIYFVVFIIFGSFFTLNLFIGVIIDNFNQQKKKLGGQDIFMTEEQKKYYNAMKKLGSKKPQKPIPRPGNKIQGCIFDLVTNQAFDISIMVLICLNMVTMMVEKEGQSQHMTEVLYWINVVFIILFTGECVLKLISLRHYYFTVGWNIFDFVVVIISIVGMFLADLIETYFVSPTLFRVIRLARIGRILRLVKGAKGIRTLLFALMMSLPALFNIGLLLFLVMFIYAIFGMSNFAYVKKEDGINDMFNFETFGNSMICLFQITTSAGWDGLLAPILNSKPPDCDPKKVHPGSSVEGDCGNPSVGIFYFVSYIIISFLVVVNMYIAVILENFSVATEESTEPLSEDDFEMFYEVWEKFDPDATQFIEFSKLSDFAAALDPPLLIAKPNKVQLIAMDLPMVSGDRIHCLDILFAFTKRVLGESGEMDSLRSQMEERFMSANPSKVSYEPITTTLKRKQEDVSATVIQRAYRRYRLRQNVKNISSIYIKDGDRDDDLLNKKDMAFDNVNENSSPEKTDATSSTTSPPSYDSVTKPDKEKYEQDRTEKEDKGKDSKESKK
T1 sequence (Q07699 19-218, further chain): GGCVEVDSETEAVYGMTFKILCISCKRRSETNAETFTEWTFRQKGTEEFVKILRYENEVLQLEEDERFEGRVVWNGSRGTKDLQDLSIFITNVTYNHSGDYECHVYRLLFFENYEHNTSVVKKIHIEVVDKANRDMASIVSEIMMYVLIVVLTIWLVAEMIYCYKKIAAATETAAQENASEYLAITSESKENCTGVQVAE

CN1CC[C@]23c4c5ccc(O)c4O[C@H]2[C@@H](O)C=C[C@H]3[C@H]1C5 [morphine]
mechanical allodynia induced by SNI compared with the saline group (C57BL/6 mice [1]): significantly decreased | duration of anti-allodynic effect, CFA model (C57BL/6 mice [2]): 2 h

CC(C)C[C@@H]1NC(=O)[C@H](Cc2ccc(O)cc2)NC(=O)[C@H](CC(N)=O)NC(=O)[C@H](CCCCN)NC(=O)[C@@H]2CSSC[C@H](NC(=O)CNC(=O)[C@@H](N)CCCCN)C(=O)N[C@@H](CCCCN)C(=O)NCC(=O)N[C@@H](Cc3ccccc3)C(=O)NCC(=O)N[C@@H](CC(=O)O)C(=O)N[C@@H](CO)C(=O)N[C@H]3CSSC[C@H](NC1=O)C(=O)N[C@@H](CO)C(=O)N[C@@H](CO)C(=O)N[C@@H](CCCCN)C(=O)N[C@@H](Cc1c[nH]cn1)C(=O)N[C@@H](CCCCN)C(=O)N[C@@H](Cc1c[nH]c4ccccc14)C(=O)N[C@H](C(=O)N[C@@H](CCCCN)C(=O)N[C@H](C(=O)N[C@@H](Cc1ccc(O)cc1)C(=O)N[C@@H](CC(C)C)C(=O)N[C@H](C(N)=O)C(C)C)C(C)C)CSSC[C@H](NC(=O)[C@H](CCC(=O)O)NC(=O)[C@H](CC(N)=O)NC(=O)[C@H](CCCCN)NC(=O)CNC(=O)[C@@H]1CCCN1C(=O)[C@H]([C@@H](C)O)NC3=O)C(=O)N2 [HNTX-III-H4] (H-KGCKGFGDSCTPGKNECCKNYLCSSKHKWCKVYLV-NH2; disulfide 3-18, 10-23, 17-30; N-terminus and C-terminus assumed)
improved potency on hNav1.7 currents (hNav1.7): 30 fold | improved potency for rKv4.3 (rKv4.3): 45 fold
